Consider two compounds from patent publication US20260191749A1, “COMPOSITION AND PROCESS OF MAKING BIO-BASED UPCYCLED OILS IN FLOW REACTORS” (RiKarbon, Inc., priority 2022, published 2026).

What all share (assay type): physicochemical
Data set [1] can be described thus: Boiling point, ASTM D1120, ASTM D6352. The procedure: (§1) Specifications of Product. Key specifications of RKBA-14, RKBA17, RKBA-22 and RKBA28/33 products were determined by various ASTM methods.
A short description of a further data set: Flash point, ASTM D93. The protocol:
as §1

The nature of a further data set: Density, ASTM D1209. The protocol:
as §1

The next data set is described as follows: Viscosity, ASTM D445. The protocol: as §1
A further data set in a line: RI of upcycled oils. The procedure:
as §1

Data set [2] is described as follows: I2 number, USP-NF-2022, issue 1. The protocol:
as §1

Data set [3] in a line: Freezing point, ASTM S2386. The protocol: as §1
A short description of another data set: Pour point, ASTM D6749. The settings on record: neat oil. The procedure:
as §1

In data set [1], `CCCCCCC(CCCCC)CCCCC` [RKBA-17] registered a Boiling point of 288 ± 12 °C. The same compound yielded a Flash point in “Flash point, ASTM D93” of 121 ± 13° ° C. This compound displayed a Density in the data set “Density, ASTM D1209” (at 60º F) of 0.7895 g/mL. Also, the “Viscosity at 40° C.” value in “Viscosity, ASTM D445” is recorded as 3.42 cSt. Also, the RI in “RI of upcycled oils” is 1.4. In data set [2], this compound had a 12 number of less than 0.3g/ g/100 g.
In data set [1], `CCCCCCCCCCCC(CCCCC)CCCCC` [RKBA-22] came in with a Boiling point of 319 ± 5 °C. Also, the Flash point in the data set “Flash point, ASTM D93” stood at 153 ± 8° ° C. In “Density, ASTM D1209” (at 25° C.), the Density was found to be 0.8049 g/mL. The “Viscosity at 20° C.” value in the data set “Viscosity, ASTM D445” (20° C.) is 11.35 cSt. Besides, in “Viscosity, ASTM D445”, the “Viscosity at 40° C.” value is 6.31 cSt. Further, in the data set “Viscosity, ASTM D445” (100° C.), the “Viscosity at 100° C.” value is reported as 1.96 cSt. In addition, in data set [3], the Freezing point was −10.5 ± −4 °C. For the same compound, the “Pour Point” value in the data set “Pour point, ASTM D6749” was −21 °C.
